One assay concerns the target T1, CYP17 (Rattus norvegicus, UniProt P11715).
T1 construct: from tissue; host or cells: rat testis (pooled microsomes)
T1 sequence (P11715 1-507): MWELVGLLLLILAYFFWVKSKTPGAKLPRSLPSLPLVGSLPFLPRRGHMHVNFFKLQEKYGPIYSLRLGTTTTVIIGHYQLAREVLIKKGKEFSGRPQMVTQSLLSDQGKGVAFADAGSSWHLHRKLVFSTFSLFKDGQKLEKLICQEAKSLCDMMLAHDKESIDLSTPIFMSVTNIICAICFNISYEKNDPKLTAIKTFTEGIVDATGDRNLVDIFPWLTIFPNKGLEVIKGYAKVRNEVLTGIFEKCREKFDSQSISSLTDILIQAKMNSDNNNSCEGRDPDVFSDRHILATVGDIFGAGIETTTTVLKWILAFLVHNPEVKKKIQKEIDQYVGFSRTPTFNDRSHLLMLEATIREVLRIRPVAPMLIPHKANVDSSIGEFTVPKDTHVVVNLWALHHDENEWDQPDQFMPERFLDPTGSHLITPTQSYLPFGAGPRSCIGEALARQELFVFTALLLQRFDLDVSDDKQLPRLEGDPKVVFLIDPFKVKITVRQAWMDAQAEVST
The experiment in a line: Inhibition of CYP17 (rat testicular microsomes). The class given is biochemical. The settings on record: pooled rat testicular microsomes. How it is done:
CYP17 activity was assayed according to the following procedure. […] The individual test compound and isozyme inhibitor solutions were then diluted 20-fold with deionized water (50:950 v/v) to concentrations of 135, 27, 4.5, 0.9, 0.15, 0.03 and 0.005 μM. […] For active controls, blank test compound diluent was added in place of test compound solution.

For a further assay, the target named is CYP2C9 (Homo sapiens, UniProt P11712). In words: Inhibition of liver cytochrome P450 enzymes, CYP2C9 (human liver microsomes). How it is done: (§1) A. Inhibition of Liver Cytochrome P450 Enzymes
CYP2C9, sequence (P11712 whole entry): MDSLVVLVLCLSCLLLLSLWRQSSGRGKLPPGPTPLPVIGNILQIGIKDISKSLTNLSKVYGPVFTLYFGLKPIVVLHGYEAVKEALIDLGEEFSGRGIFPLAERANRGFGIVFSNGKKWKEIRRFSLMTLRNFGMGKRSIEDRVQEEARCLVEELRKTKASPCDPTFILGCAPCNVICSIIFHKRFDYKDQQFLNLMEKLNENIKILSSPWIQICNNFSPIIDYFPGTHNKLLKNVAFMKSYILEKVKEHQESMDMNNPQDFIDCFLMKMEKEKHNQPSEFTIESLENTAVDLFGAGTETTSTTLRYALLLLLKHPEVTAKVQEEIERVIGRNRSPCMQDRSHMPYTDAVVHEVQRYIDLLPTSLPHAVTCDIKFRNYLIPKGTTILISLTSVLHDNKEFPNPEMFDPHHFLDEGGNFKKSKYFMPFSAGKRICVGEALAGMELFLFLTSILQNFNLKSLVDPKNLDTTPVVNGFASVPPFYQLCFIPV
(§2) Solutions of each test compound were separately prepared at concentrations of 20000, 6000, 2000, 600, 200, and 60 μM by serial dilution with DMSO:MeCN (50:50 v/v). The individual test compound solutions were then diluted 20-fold with DMSO:MeCN:deionized water (5:5:180 v/v/v) to concentrations of 1000, 300, 100, 30, 10, and 3 μM. […] The mixed inhibitor solutions were then diluted 20-fold with DMSO:MeCN:deionized water (5:5:180 v/v/v) to concentrations of 300, 100, 30, 10, 3, 1, 0.3, and 0.1 μM. The percent of organic solvent attributable to the test compound or inhibitor mixture in the final reaction mixture was 2% v/v.
(§3) Pooled human liver microsome suspension (20 mg/mL) was diluted with phosphate buffer to obtain a 5 mg/mL suspension. A solution of NADPH was prepared in phosphate buffer at a concentration of 5 mM. Separate stock solutions of each substrate were prepared in DMSO:MeCN (50:50 v/v), mixed, and diluted in phosphate buffer to obtain a single solution containing each substrate at five times its experimentally determined Km concentration. The percent of organic solvent attributable to substrate mixture in the final reaction mixture was 1% v/v.
(§4) Substrate solution and microsome suspension were combined in a 1:1 volume ratio, mixed, and distributed to reaction wells of a PCR plate. Individual test compound or combined inhibitor solutions at each concentration were added to the wells and mixed by repetitive aspirate-dispense cycles. […] Reaction mixtures were allowed to equilibrate at 37° C. for approximately two minutes before adding NADPH solution to initiate reaction, followed by pipette mixing of reaction mixture. Ten minutes after addition of NADPH, the reaction mixtures were quenched with cold acetonitrile. […] A portion of the supernatant was analyzed by gradient reverse-phase HPLC with detection by electrospray ionization triple quadrupole mass spectrometry in the positive ion mode.
(§5) Data was fitted to sigmoid dose-response curves and the inhibitory potency of each test compound was determined as its IC50 value.
(In general: Liver microsomes are vesicles of endoplasmic reticulum, rich in cytochrome P450 enzymes.)

The target in the next assay is CYP3A4 (Homo sapiens, UniProt P08684). The experiment in a line: Inhibition of liver cytochrome P450 enzymes, CYP3A4 (human liver microsomes). How it is done:
as §1, §2, §3, §4, §5

A further assay concerns the target CYP2C19 (Homo sapiens, UniProt P33261). In words: Inhibition of liver cytochrome P450 enzymes, CYP2C19 (human liver microsomes). How it is done:
as §1, §2, §3, §4, §5

Molecules are shown by their SMILES.

Experimental findings from US9056855B2, “Metalloenzyme inhibitor compounds” (Viamet Pharmaceuticals, Inc., priority 2010, dated 2015) are described below.

CYP3A4, sequence (P08684 whole entry): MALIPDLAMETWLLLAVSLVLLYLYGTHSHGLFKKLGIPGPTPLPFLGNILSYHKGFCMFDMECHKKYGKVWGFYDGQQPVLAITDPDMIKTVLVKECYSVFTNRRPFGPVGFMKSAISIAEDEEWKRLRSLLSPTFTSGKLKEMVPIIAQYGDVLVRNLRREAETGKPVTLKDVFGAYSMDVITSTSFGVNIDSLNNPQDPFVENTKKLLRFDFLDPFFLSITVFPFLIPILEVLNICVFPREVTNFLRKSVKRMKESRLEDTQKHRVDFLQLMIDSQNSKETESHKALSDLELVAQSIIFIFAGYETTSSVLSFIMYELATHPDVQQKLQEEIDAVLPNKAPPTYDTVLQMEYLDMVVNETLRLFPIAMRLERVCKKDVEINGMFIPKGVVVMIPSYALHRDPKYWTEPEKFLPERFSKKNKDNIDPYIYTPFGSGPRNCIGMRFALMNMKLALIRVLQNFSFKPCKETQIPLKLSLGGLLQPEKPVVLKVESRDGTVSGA
CYP2C19, sequence (P33261 whole entry): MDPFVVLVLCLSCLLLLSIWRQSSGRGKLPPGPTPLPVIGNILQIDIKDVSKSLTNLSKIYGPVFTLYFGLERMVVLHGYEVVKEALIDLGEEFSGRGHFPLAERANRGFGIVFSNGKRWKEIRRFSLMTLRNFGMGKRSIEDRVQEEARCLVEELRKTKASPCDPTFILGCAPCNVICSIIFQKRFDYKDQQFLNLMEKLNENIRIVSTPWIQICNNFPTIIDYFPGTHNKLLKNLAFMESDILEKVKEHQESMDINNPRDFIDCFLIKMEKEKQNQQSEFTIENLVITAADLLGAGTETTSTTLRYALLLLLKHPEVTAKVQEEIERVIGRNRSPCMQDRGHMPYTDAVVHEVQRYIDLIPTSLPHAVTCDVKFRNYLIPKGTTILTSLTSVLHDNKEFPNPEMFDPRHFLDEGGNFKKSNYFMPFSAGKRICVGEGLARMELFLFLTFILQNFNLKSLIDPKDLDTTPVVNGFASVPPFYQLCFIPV

One may read the IC50 as the point on the concentration scale where inhibition reaches its midpoint. At CYP17, `CC(C)C(O)(c1ccncn1)c1ccc2c(C(F)(F)F)c(Cl)ccc2n1` (centres unmarked) [Example 5, 1-(6-chloro-5-(trifluoromethyl)quinolin-2-yl)-2-methyl-1-(pyrimidin-4-yl)propan-1-ol] returned an IC50 of 1750 nM.
For `CC(C)C(O)(c1ccncn1)c1ccc2c(C(F)(F)F)c(-c3cccs3)ccc2n1` (centres unmarked) [Example 4, 2-methyl-1-(pyrimidin-4-yl)-1-(6-(thiophen-2-yl)-5-(trifluoromethyl)quinolin-2-yl)propan-1-ol], the IC50 against CYP17 amounted to 5760 nM.
Same read-out and setting: next, `CC(C)C(O)(c1ccncn1)c1ccc2c(C(F)(F)F)c(OC(F)F)ccc2n1` (centres unmarked) [Example 7, 1-(6-(difluoromethoxy)-5-(trifluoromethyl)quinolin-2-yl)-2-methyl-1-(pyrimidin-4-yl)propan-1-ol]: 600 nM; `CC(C)C(O)(c1ccncn1)c1ccc2cc(OC(F)(F)F)ccc2n1` (centres unmarked) [Example 6, 2-methyl-1-(pyrimidin-4-yl)-1-(6-(trifluoromethoxy)quinolin-2-yl)propan-1-ol]: 980 nM.
On to `CC(C)C(O)(c1ccncn1)c1ccc2cc(OC(F)F)ccc2n1` (centres unmarked) [Example 3, 1-(6-(Difluoromethoxy)quinolin-2-yl)-2-methyl-1-(pyrimidin-4-yl)propan-1-ol], for which the IC50 against CYP2C9 is 3.5 µM; against CYP3A4, 30 µM; against CYP2C19, 8.7 µM; against CYP17 it was 80 nM.
In the same order, the values of `CSc1ccc2nc(C(O)(c3ccncn3)C(C)C)ccc2c1` (centres unmarked) [Example 2, 2-Methyl-1-(6-(methylthio)quinolin-2-yl)-1-(pyrimidin-4-yl)propan-1-ol] are 3.3 µM, 19 µM, 5.1 µM and 120 nM.
With `COc1cc2ccc(C(O)(c3ccncn3)C(C)C)cc2cc1OC` (centres unmarked) [Example 1, 1-(6,7-dimethoxynaphthalen-2-yl)-2-methyl-1-(pyrimidin-4-yl)propan-1-ol], the IC50 against CYP2C9 stood at 7.8 µM; against CYP3A4, 18 µM; against CYP2C19, 8.5 µM; on CYP17 it was 440 nM.
Turning to `CC(C)C(O)(c1ccncn1)c1ccc2c(-c3cccs3)c(OC(F)F)ccc2n1` (centres unmarked) [Example 8, 1-(6-(difluoromethoxy)-5-(thiophen-2-yl)quinolin-2-yl)-2-methyl-1-(pyrimidin-4-yl)propan-1-ol], the IC50 against CYP17 was determined as 1000 nM.
